Earlier results, collected in patent US20170009119A1, “DIELECTRIC FLUID AND COOLANT MADE WITH BIOBASED BASE OIL” (Novvi LLC, priority 2014, published 2017).

Tested on: aquatic life
Conditions: European Directive 67/548/EEC

**Q.** Which “toxicity to aquatic life (code R51/53)” value does the source give for c1ccc2c(c1)CCCC2 [tetralin, 1,2,3,4-tetrahydronaphthalene] here?
**A.** toxic to aquatic life with long lasting effects
